Values quoted from earlier work in patent US20040048805A1, “Antilipemic agents” (priority 2003, published 2004).

Tested on: HMG-CoA reductase
Conditions: oral administration to rabbits; Arterioscler Thromb Vasc Biol. 1998; 18: 1304

CCC(CC)CC(=O)c1c(C(=O)OC)c(-c2ccc(OC)c(OC)c2)c2c(OC)c(OC)c(OC)cc2c1O [compound A, methyl 1-(3,4-dimethoxyphenyl)-3-(3-ethylvaleryl)-4-hydroxy-6,7,8-trimethoxy-2-naphtoate]
HMG-CoA reductase activity in the liver: increased the HMG-CoA reductase activity in the liver
